Results as given in patent US10471059B2, “Compositions and methods of using tyrosine kinase inhibitors” (YALE UNIVERSITY, priority 2015, dated 2019).

What was measured:
[1] = test system: PZR Y241 and Y263 phosphorylation; experiment: Shp2E76A-induced PZR tyrosyl phosphorylation in NIH 3T3 cells, immunoblot; type: cell-based; conditions: cells expressing activated Shp2 (Shp2-E76A)
[2] = test system: PZR Y241 and Y263 phosphorylation; experiment: Shp2 mutant-induced PZR tyrosyl phosphorylation in HEK-293 cells, immunoblot; type: cell-based; conditions: HEK-293 cells transfected with Shp2 mutants; 5 μM SU6656

| Structure (SMILES) | concentration at which Shp2-E76A-induced PZR hyper tyrosyl phosphorylation was inhibited [1] [µM] | NS and NSML Shp2 mutant-induced PZR hypertyrosyl phosphorylation [2] |
| --- | --- | --- |
| CC(C)(C)n1nc(-c2ccc(Cl)cc2)c2c(N)ncnc21 [PP2] | 5 |  |
| CN(C)S(=O)(=O)c1ccc2c(c1)/C(=C/c1cc3c([nH]1)CCCC3)C(=O)N2 [SU6656] | 1 | can be inhibited |
